The test system of assay [1] is mice. In words: Elevated plus maze. The class given is in vivo. To be noted: male Balb/c mice, oral, diazepam 1 mg/kg. The source says:
The elevated plus maze is a widely used method to test anxiety in rodents (Pellow, et al., Pharmacol. Biochem. Behav., 24, 525-529 (1986)). The apparatus was made of wood and painted black, with two opposing open arms and two opposite enclosed arms of the same size. The arms were attached to a central square shaped in a plus sign. The whole apparatus was placed 50 cm above the floor. Anxious animals refrain from entering the open arm and prefer the closed arm.
In a typical experiment, Balb/c male mice were administered orally with 10 and 20 mg/kg of Compound 1 or Compound 6 and with a vehicle or with diazepam (1 mg/kg) administered per os (p.o.) 90 minutes before they were placed in the center of the maze. The frequency to the open aims, the time spent in the different arms, the velocity and number of rearings of the animals in each zone were recorded (Noldus).
Male Balb/c mice were used. Animals were transferred to the behavior room 24 hr before the experiment. Compound 1 or diazepam were administered orally 90 minutes before testing. Each treatment group included 5 animals.
Male Balb/c mice were used. Animals were transferred to the behavior room 24 hr before the experiment. Compound 6 (3, 9, or 27 mg/kg) or vehicle were administered orally 90 minutes before testing. Each treatment group included 5 animals.

Assay [2] deals with mice. Description: Forced swim test (FST). The class given is in vivo. The note with it: male ICR mice, 20 mg/kg oral. From the text: This is one of the most widely used tools for screening antidepressant activity pre-clinically in acute treatment. The test was first described by Porsolt et al., (Behavioral despair in mice: a primary screening test for antidepressants. Arch. Int. Pharmacodyn. Ther. 229, pp. 327-336, 1977). The FST test is based on the observation that rats and mice develop an immobile posture when placed in an inescapable cylinder of water. This behavior is considered a behavioral despair as opposed to active form of coping with stressful conditions. The FST test is considered a good screening tool with good reliability and predictive validity.
Three parameters were defined in the evaluation of FST:
1. Immobility—defined in the traditional Porsolt test as when no additional activity is observed other than that required to keep the animal's head above water;
2. Swimming behavior—being the movement (usually horizontal) throughout the chamber that also includes crossing into another quadrant;
3. Climbing behavior—being defined as the upward-directed movements (vertical) of the forepaws along the side of the swim chamber.
The test in mice was conducted acutely (60-90 minutes post oral drug administration) and animals were dropped to the cylinder for 6 minutes and scoring was performed in the last 4 minutes after 2 minutes of adaptation.
Round glass cylinders, 18 cm in diameter and 20 cm deep were used. Water temperature was 24-28° C. Four parameters were taken: immobility, velocity, distance and strong mobility. The immobility in the animals was defined by activity lower than 10% movement of the center of gravity of the animal. Swimming was defined by the distance and the velocity of the animal, and climbing was related to strong mobility (movement of center of gravidance more than 30%).
Males Balb/c mice (Harlan Israel) were used. Animals were administered orally with Compound 1 (10 or 20 mg/kg) or with a vehicle.
Males ICR mice were used.

We go through two compounds from patent US8828993B2, “Psychotropic agents having glutamate NMDA activity” (Ramot At Tel-Aviv University Ltd., priority 2006, dated 2014).

In the case of `CN1C(=O)CN=C(c2ccccc2)c2cc(Cl)ccc21` [diazepam, reference compound], in the assay on mice [1], the “number of rearings in the center” value is on record as “significantly increased”, the “number of rearings in the open arm” value is “increased number of rearings” and the velocity result is recorded as “higher”.
In the case of `Cc1cc2c(s1)Nc1ccccc1N=C2N1CCN(C)CC1` [olanzapine, reference compound], in the assay with mice [2], the distance moved result is “significantly decreased”, the immobility entry is “increased”, the “strong mobility (climbing)” value was “significantly decreased” and the velocity entry is “significantly decreased”.
